Assay type in all cases: in vivo
Experiment [1] deals with Beet Armyworm (Spodoptera exigua). Nature of the experiment: Bioassay on Beet Armyworm (BAW), 128-well diet tray assay. As to conditions: Beet Armyworm, Table ABC, read-out: BAW rating. The method in brief: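 Second-instar larvae (one to five per well) placed on artificial diet surface-treated with 50 μg/cm^2 test molecule in 90:10 acetone-water, dried, eight wells per molecule. Held at 25° C, 14:10 light-dark, five to seven days; percent mortality recorded per well and averaged across the eight wells.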

Experiment [2] relates to Yellow Fever Mosquito (Aedes aegypti). Nature of the experiment: Bioassay on Yellow Fever Mosquito (YFM) larvae, 96-well plate. Particulars: Table ABC. A digest of the protocol: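 About 1-day-old larvae in water with liver powder were added to wells holding compound from a 4000 ppm DMSO master diluted in 90:10 water:acetone. Plates covered and kept at room temperature for 3 days, then each well scored for mortality on a rating scale.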

The test system of experiment [3] is Cabbage Looper (Trichoplusia ni). The experiment can be described thus: Bioassay on Cabbage Looper (CL), 128-well diet tray assay. As to conditions: Cabbage Looper, Table ABC, read-out: CL rating. A digest of the protocol:
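Second-instar larvae, one to five per well, placed on artificial diet surface-treated with 50 μg/cm^2 compound in acetone-water, eight wells per compound. Held 5-7 days at 25° C, 14:10 light-dark; percent mortality per well averaged across wells.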

For 14 molecules, pest or weed control and YFM rating results are on record in patent US10251394B2, “Molecules having pesticidal utility, and intermediates, compositions, and processes, related thereto” (Dow AgroSciences LLC, priority 2016, dated 2019).

The structures appear in SMILES notation.

Take `CN(CC(=O)NCC(F)(F)F)C(=O)c1ccc(/C(F)=C/C(c2cc(Cl)c(Cl)c(Cl)c2)C(F)(F)F)cc1C(F)(F)F` (stereo not drawn) [F68, (Z)—N-Methyl-N-(2-oxo-2-((2,2,2-trifluoroethyl)amino)ethyl)-4-(1,4,4,4-tetrafluoro-3-(3,4,5-trichlorophenyl)but-1-en-1-yl)-2-(trifluoromethyl)benzamide]: the pest or weed control at 50 µg/cm2 in experiment [1] and in experiment [3] was 50 to 100% in each case. In addition, the YFM rating entry in experiment [2] is given as “A (80-100)”.
For `O=C(CNC(=S)c1ccc(/C(F)=C/C(c2cc(Cl)c(Cl)c(Cl)c2)C(F)(F)F)cc1C(F)(F)F)NCC(F)(F)F` (stereo not drawn) [PF82, (Z)-2-(4-(1,4,4,4-tetrafluoro-3-(3,4,5-trichlorophenyl)but-1-en-1-yl)-2-(trifluoromethyl)phenylthioamido)-N-(2,2,2-trifluoroethyl)acetamide], the pest or weed control at 50 µg/cm2 in experiment [1] and in experiment [3] was 50 to 100% each time. Moreover, the YFM rating result in experiment [2] is “A (80-100)”.
Consider `O=C(CNC(=O)c1ccc(/C(F)=C/C(c2cc(Br)cc(Br)c2)C(F)(F)F)cc1C(F)(F)F)NCC(F)(F)F` (stereo not drawn) [F35, (Z)-4-(3-(3,5-Dibromophenyl)-1,4,4,4-tetrafluorobut-1-en-1-yl)-N-(2-oxo-2-((2,2,2-trifluoroethyl)amino)ethyl)-2-(trifluoromethyl)benzamide], for which the pest or weed control at 50 µg/cm2 in experiment [1] and in experiment [3] was 50 to 100% throughout. In addition, in experiment [2], the YFM rating result is listed as “A (80-100)”.
Turning to `CN(CC(F)(F)F)C(=O)CNC(=O)c1ccc(/C(F)=C/C(c2cc(Cl)c(Br)c(Cl)c2)C(F)(F)F)cc1C(F)(F)F` (stereo not drawn) [F75, (Z)-4-(3-(4-Bromo-3,5-dichlorophenyl)-1,4,4,4-tetrafluorobut-1-en-1-yl)-N-(2-(methyl(2,2,2-trifluoroethyl)amino)-2-oxoethyl)-2-(trifluoromethyl)benzamide], the pest or weed control at 50 µg/cm2 in experiment [1] and in experiment [3] was 50 to 100% in each case. In experiment [2], the YFM rating result is on record as “A (80-100)”.
As for `CCc1ccc(C(/C=C(\F)c2ccc(C(=O)NCC(=O)NCC(F)(F)F)c(C(F)(F)F)c2)C(F)(F)F)cc1Cl` (stereo not drawn) [F165, (Z)-4-(3-(3-Chloro-4-ethylphenyl)-1,4,4,4-tetrafluorobut-1-en-1-yl)-N-(2-oxo-2-((2,2,2-trifluoroethyl)amino)ethyl)-2-(trifluoromethyl)benzamide], the pest or weed control at 50 µg/cm2 in experiment [1] and in experiment [3] was 50 to 100% throughout. For the same molecule, in experiment [2], the YFM rating result is “B (More than 0-Less than 80)”.
For `CN(CC(F)(F)F)C(=O)CNC(=O)c1ccc(/C(F)=C/C(c2ccc(Br)c(Br)c2)C(F)(F)F)cc1C(F)(F)F` (stereo not drawn) [PF4, (Z)-4-(3-(3,4-Dibromophenyl)-1,4,4,4-tetrafluorobut-1-en-1-yl)-N-(2-(methyl(2,2,2-trifluoroethyl)amino]-2-oxoethyl)-2-(trifluoromethyl)benzamide], the pest or weed control at 50 µg/cm2 in experiment [1] and in experiment [3] was 50 to 100% throughout. Further, in experiment [2], the YFM rating result was “A (80-100)”.
For the molecule `Cc1cc(C(/C=C(\F)c2ccc(C(=O)N[C@H](C)C(=O)N(C)CC(F)(F)F)c(C(F)(F)F)c2)C(F)(F)F)cc(Cl)c1Cl` (stereo partly drawn) [PF14, 4-((Z)-3-(3,4-Dichloro-5-methylphenyl)-1,4,4,4-tetrafluorobut-1-en-1-yl)-N—((R)-1-(methyl(2,2,2-trifluoroethyl)amino)-1-oxopropan-2-yl)-2-(trifluoromethyl)benzamide], the pest or weed control at 50 µg/cm2 in experiment [1] and in experiment [3] was 50 to 100% throughout. Also, in experiment [2], the YFM rating entry was “A (80-100)”.
Consider `C[C@@H](NC(=O)c1ccc(/C(F)=C/C(c2ccc(Br)c(Cl)c2)C(F)(F)F)cc1C(F)(F)F)C(=O)NCC(F)(F)F` (stereo partly drawn) [PF25], for which the pest or weed control at 50 µg/cm2 in experiment [1] and in experiment [3] was 50 to 100% in each case. In addition, in experiment [2], the YFM rating entry was “B (More than 0-Less than 80)”.
For `C=Cc1c(Cl)cc(C(/C=C(\F)c2ccc(C(=O)N[C@H](C)C(=O)N(C)CC(F)(F)F)c(C(F)(F)F)c2)C(F)(F)F)cc1Cl` (stereo partly drawn) [F86, 4-((Z)-3-(3,5-Dichloro-4-vinylphenyl)-1,4,4,4-tetrafluorobut-1-en-1-yl)-N—((R)-1-(methyl(2,2,2-trifluoroethyl)amino)-1-oxopropan-2-yl)-2-(trifluoromethyl)benzamide], the pest or weed control at 50 µg/cm2 in experiment [1] and in experiment [3] was 50 to 100% each time. Also, the YFM rating entry in experiment [2] is listed as “A (80-100)”.
`C[C@@H](NC(=O)c1ccc(/C(F)=C/C(c2cc(Cl)c(Cl)c(Cl)c2)C(F)(F)F)cc1C(F)(F)F)C(=O)N(C)C` (stereo partly drawn) [F172, N—((R)-1-(Dimethylamino)-1-oxopropan-2-yl)-4-((Z)-1,4,4,4-tetrafluoro-3-(3,4,5-trichlorophenyl)but-1-en-1-yl)-2-(trifluoromethyl)benzamide]: the pest or weed control at 50 µg/cm2 in experiment [1] and in experiment [3] was 50 to 100% each time. For the same molecule, the YFM rating result in experiment [2] was “B (More than 0-Less than 80)”.
With `O=C(CNC(=O)c1ccc(/C(F)=C/C(c2cc(Cl)cc(Cl)c2)C(F)(F)F)cc1C(F)(F)F)NCC(F)(F)F` (stereo not drawn) [F40, (Z)-4-(3-(3,5-Dichlorophenyl)-1,4,4,4-tetrafluorobut-1-en-1-yl)-N-(2-oxo-2-((2,2,2-trifluoroethyl)amino)ethyl)-2-(trifluoromethyl)benzamide], the pest or weed control at 50 µg/cm2 in experiment [1] and in experiment [3] was 50 to 100% throughout. The YFM rating result in experiment [2] was “A (80-100)”.
Take `C[C@@H](NC(=O)c1ccc(/C(F)=C/C(c2ccc(Cl)c(Br)c2)C(F)(F)F)cc1C(F)(F)F)C(=O)N(C)CC(F)(F)F` (stereo partly drawn) [PF37, 4-((Z)-3-(3-Bromo-4-chlorophenyl)-1,4,4,4-tetrafluorobut-1-en-1-yl)-N—((R)-1-(methyl(2,2,2-trifluoroethyl)amino)-1-oxopropan-2-yl)-2-(trifluoromethyl)benzamide]: the pest or weed control at 50 µg/cm2 in experiment [1] and in experiment [3] was 50 to 100% in each case. For the same molecule, the YFM rating entry in experiment [2] is “B (More than 0-Less than 80)”.
With `O=C(N[C@@H]1CON(CC(F)(F)F)C1=O)c1ccc(/C(F)=C/C(c2cc(Cl)c(C(F)F)c(Cl)c2)C(F)(F)F)cc1C(F)(F)F` (stereo partly drawn) [F143, 4-((2)-3-(3,5-Dichloro-4-(difluoromethyl)phenyl)-1,4,4,4-tetrafluorobut-1-en-1-yl)-N—((R)-3-oxo-2-(2,2,2-trifluoroethyl)isoxazolidin-4-yl)-2-(trifluoromethyl)benzamide], the pest or weed control at 50 µg/cm2 in experiment [1] and in experiment [3] was 50 to 100% in each case. For the same molecule, in experiment [2], the YFM rating entry is “A (80-100)”.
For the molecule `C[C@@H](NC(=O)c1ccc(/C(F)=C/C(c2cc(F)c(F)c(F)c2)C(F)(F)F)cc1C(F)(F)F)C(=O)NCC(F)(F)F` (stereo partly drawn) [F159, N—((R)-1-Oxo-1-((2,2,2-trifluoroethyl)amino)propan-2-yl)-4-((Z)-1,4,4,4-tetrafluoro-3-(3,4,5-trifluorophenyl)but-1-en-1-yl)-2-(trifluoromethyl)benzamide], the pest or weed control at 50 µg/cm2 in experiment [1] and in experiment [3] was 50 to 100% each time. Besides, the YFM rating entry in experiment [2] is “A (80-100)”.
